Results as given in patent US20250101011A1, “PEPTIDYL NITRILE COMPOUND AND USE THEREOF” (SHANGHAI YIDIAN PHARMACEUTICAL TECHNOLOGY DEVELOPMENT CO., …, priority 2022, published 2025).

Target: DPP1 (Homo sapiens (Human), UniProt P53634)
Test: DPP1 activity inhibition test on U937 cells
Assay type: cell-based
Settings: substrate h-Gly-phe-AFC; for inhibition at 0.005 µM: U-937, 5 nM compound; for inhibition at 0.05 µM: U-937, 50 nM compound; for IC50: intracellular enzyme activity
Experimental: After incubation at 37° C. for 1 h, add h-Gly-phe-AFC (10 μL) to each well and start reaction.

Sequence of DPP1 (P53634 25-463): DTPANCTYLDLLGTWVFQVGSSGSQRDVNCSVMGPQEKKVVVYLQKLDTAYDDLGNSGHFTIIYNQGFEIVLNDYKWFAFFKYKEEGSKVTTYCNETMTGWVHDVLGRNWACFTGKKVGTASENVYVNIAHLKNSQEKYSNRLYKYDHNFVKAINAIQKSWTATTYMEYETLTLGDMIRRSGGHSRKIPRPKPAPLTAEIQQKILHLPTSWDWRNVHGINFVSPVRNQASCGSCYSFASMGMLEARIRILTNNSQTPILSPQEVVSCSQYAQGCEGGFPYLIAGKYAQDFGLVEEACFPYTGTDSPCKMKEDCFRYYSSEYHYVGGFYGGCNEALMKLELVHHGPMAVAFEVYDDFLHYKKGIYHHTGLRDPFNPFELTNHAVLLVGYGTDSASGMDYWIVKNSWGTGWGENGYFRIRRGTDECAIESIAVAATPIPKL

SMILES: Cn1c(=O)oc2ccc(-c3ccc(C[C@@H](C#N)NC(=O)[C@@H]4COCC[C@@H]4N)cc3)cc21 [Compound D52]
- inhibition at 0.005 µM: < 30%
- inhibition at 0.05 µM: 30 to 75%

SMILES: Cn1c(=O)oc2ccc(-c3ccc(C[C@@H](C#N)NC(=O)[C@@H]4CNCCCO4)s3)cc21 [Compound D53]
- IC50: 16 nM

SMILES: Cn1c(=O)oc2ccc(-c3ccc(C[C@@H](C#N)NC(=O)[C@@H]4CNC[C@H](F)CO4)cc3)cc21 [Compound D54]
- inhibition at 0.005 µM: 30 to 75%
- inhibition at 0.05 µM: 30 to 75%

SMILES: Cn1c(=O)oc2ccc(-c3ccc(C[C@@H](C#N)NC(=O)[C@@H]4CNC[C@@H](F)CO4)c(F)c3)cc21 [Compound D55]
- IC50: 6.4 nM

SMILES: N#C[C@H](Cc1ccc(-c2ccc3c(c2)C2(CN(C4COC4)C2)OC3=O)cc1F)NC(=O)[C@@H]1CNCCCO1 [Compound D56]
- inhibition at 0.005 µM: < 30%
- inhibition at 0.05 µM: 30 to 75%

SMILES: Cn1cnc(-n2c(=O)oc3ccc(-c4ccc(C[C@@H](C#N)NC(=O)[C@@H]5CNCCCO5)c(F)c4)cc32)c1 [Compound D62]
- inhibition at 0.005 µM: < 30%
- inhibition at 0.05 µM: 30 to 75%

SMILES: Cn1cnc(-n2c(=O)oc3ccc(-c4ccc(C[C@@H](C#N)NC(=O)[C@@H]5CNCCCO5)c(F)c4)cc32)n1 [Compound D64]
- inhibition at 0.005 µM: < 30%
- inhibition at 0.05 µM: < 30%

SMILES: CO/N=C1\CCc2cc(-c3ccc(C[C@@H](C#N)NC(=O)[C@@H]4CNCCCO4)c(F)c3)ccc21 [Compound D65]
- inhibition at 0.05 µM: 30 to 75%

SMILES: Cn1c(=O)oc2ncc(-c3ccc(C[C@@H](C#N)NC(=O)[C@@H]4CNCCCO4)c(F)c3)nc21 [Compound D66]
- inhibition at 0.005 µM: < 30%
- inhibition at 0.05 µM: < 30%

SMILES: N#C[C@H](Cc1ccc(-c2ccc3oc(=O)n(C4CC(=O)C4)c3c2)cc1F)NC(=O)[C@@H]1CNCCCO1 [Compound D68]
- inhibition at 0.005 µM: < 30%
- inhibition at 0.05 µM: < 30%

SMILES: N#C[C@H](Cc1ccc(-c2ccc3oc(=O)n(C4CC(O)C4)c3c2)cc1F)NC(=O)[C@@H]1CNCCCO1 (some centres unmarked) [Compound D69]
- inhibition at 0.005 µM: < 30%
- inhibition at 0.05 µM: < 30%

SMILES: N#C[C@H](Cc1ccc(-c2ccc3oc(=O)n(C4CS(=O)(=O)C4)c3c2)cc1F)NC(=O)[C@@H]1CNCCCO1 [Compound D71]
- inhibition at 0.005 µM: < 30%
- inhibition at 0.05 µM: < 30%

SMILES: N#C[C@H](Cc1ccc(-c2ccc3c(c2)C2(CS(=O)(=O)C2)OC3=O)cc1F)NC(=O)[C@@H]1CNCCCO1 [Compound D72]
- inhibition at 0.005 µM: < 30%
- inhibition at 0.05 µM: < 30%

SMILES: CN(C)CC1OC(=O)c2ccc(-c3ccc(C[C@@H](C#N)NC(=O)[C@@H]4CNCCCO4)c(F)c3)cc21 (some centres unmarked) [Compound D76]
- inhibition at 0.005 µM: < 30%
- inhibition at 0.05 µM: 75 to 100%

SMILES: COCC1OC(=O)c2ccc(-c3ccc(C[C@@H](C#N)NC(=O)[C@@H]4CNCCCO4)c(F)c3)cc21 (some centres unmarked) [Compound D77]
- inhibition at 0.005 µM: < 30%
- inhibition at 0.05 µM: 75 to 100%

SMILES: N#C[C@H](Cc1ccc(-c2cc3c(cc2F)C(=O)OC3)cc1F)NC(=O)[C@@H]1CNCCCO1 [Compound D79]
- inhibition at 0.005 µM: < 30%
- inhibition at 0.05 µM: < 30%

SMILES: CS(=O)(=O)Cn1c(=O)oc2ccc(-c3ccc(C[C@@H](C#N)NC(=O)[C@@H]4CNCCCO4)c(F)c3)cc21 [Compound D80]
- inhibition at 0.005 µM: < 30%
- inhibition at 0.05 µM: < 30%

SMILES: N#C[C@H](Cc1ccc(-c2ccc3c(c2)N2CC(=O)N=C2O3)cc1F)NC(=O)[C@@H]1CNCCCO1 [Compound D81]
- inhibition at 0.005 µM: < 30%
- inhibition at 0.05 µM: 30 to 75%

SMILES: N#C[C@H](Cc1ccc(-c2ccc3oc(=O)n(C4CCN(C5COC5)CC4)c3c2)cc1F)NC(=O)[C@@H]1CNCCCO1 [Compound D82]
- inhibition at 0.005 µM: < 30%
- inhibition at 0.05 µM: < 30%

SMILES: CN1CCC(n2c(=O)oc3ccc(-c4ccc(C[C@@H](C#N)NC(=O)[C@@H]5CNCCCO5)c(F)c4)cc32)CC1 [Compound D83]
- inhibition at 0.005 µM: < 30%
- inhibition at 0.05 µM: < 30%

SMILES: CN1CCC2(C1)OCc1ccc(-c3ccc(C[C@@H](C#N)NC(=O)[C@@H]4CNCCCO4)c(F)c3)cc12 (some centres unmarked) [Compound D86]
- inhibition at 0.005 µM: < 30%
- inhibition at 0.05 µM: 75 to 100%

SMILES: N#C[C@H](Cc1ccc(-c2ccc3c(c2)C2(CCN(C4COC4)C2)OC3)cc1F)NC(=O)[C@@H]1CNCCCO1 (some centres unmarked) [Compound D87]
- inhibition at 0.005 µM: < 30%
- inhibition at 0.05 µM: 75 to 100%
- IC50: 12.8 nM

SMILES: CN1CCC2(C1)OC(=O)c1ccc(-c3ccc(C[C@@H](C#N)NC(=O)[C@@H]4CNCCCO4)c(F)c3)cc12 (some centres unmarked) [Compound D88]
- inhibition at 0.005 µM: < 30%
- inhibition at 0.05 µM: 75 to 100%

SMILES: N#C[C@H](Cc1ccc(-c2ccc3c(c2)C2(CCN(C4COC4)C2)OC3=O)cc1F)NC(=O)[C@@H]1CNCCCO1 (some centres unmarked) [Compound D89]
- inhibition at 0.005 µM: < 30%
- inhibition at 0.05 µM: < 30%

SMILES: CN1CCC2(C=Cc3ccc(-c4ccc(C[C@@H](C#N)NC(=O)[C@@H]5CNCCCO5)c(F)c4)cc32)CC1 [Compound D90]
- inhibition at 0.005 µM: < 30%
- inhibition at 0.05 µM: 75 to 100%

SMILES: CN1CCC2(C=Cc3cc(-c4ccc(C[C@@H](C#N)NC(=O)[C@@H]5CNCCCO5)c(F)c4)ccc32)CC1 [Compound D91]
- inhibition at 0.005 µM: 30 to 75%
- inhibition at 0.05 µM: 75 to 100%
- IC50: 18 nM

SMILES: N#C[C@H](Cc1ccc(-c2ccc3c(c2)C=CC32CCN(C3COC3)CC2)cc1F)NC(=O)[C@@H]1CNCCCO1 [Compound D93]
- inhibition at 0.005 µM: 30 to 75%
- inhibition at 0.05 µM: 75 to 100%
- IC50: 15.8 nM

SMILES: N#C[C@H](Cc1ccc(-c2ccc3oc(=O)n(CC4COC4)c3c2)cc1F)NC(=O)[C@@H]1CNCCCO1 [Compound D94]
- inhibition at 0.005 µM: < 30%
- inhibition at 0.05 µM: < 30%

SMILES: N#C[C@H](Cc1ccc(-c2ccc3oc(=O)n(CC4CCO4)c3c2)cc1F)NC(=O)[C@@H]1CNCCCO1 (some centres unmarked) [Compound D95]
- inhibition at 0.005 µM: < 30%
- inhibition at 0.05 µM: 75 to 100%
- IC50: 17 nM

SMILES: CN1CC(Cn2c(=O)oc3ccc(-c4ccc(C[C@@H](C#N)NC(=O)[C@@H]5CNCCCO5)c(F)c4)cc32)C1 [Compound D96]
- IC50: 367 nM

SMILES: CN1CCC1Cn1c(=O)oc2ccc(-c3ccc(C[C@@H](C#N)NC(=O)[C@@H]4CNCCCO4)c(F)c3)cc21 (some centres unmarked) [Compound D97]
- IC50: 109 nM

SMILES: Cn1c(=O)oc2ccc(-c3ccc(C[C@@H](C#N)NC(=O)[C@@H]4CNCC5(COC5)CO4)c(F)c3)cc21 [Compound D98]
- inhibition at 0.005 µM: < 30%
- inhibition at 0.05 µM: < 30%

SMILES: N#C[C@H](Cc1ccc(-c2ccc3oc(=O)n(C4COC4)c3c2)cc1F)NC(=O)[C@@H]1CNCCCO1 [Compound D99]
- inhibition at 0.005 µM: < 30%
- inhibition at 0.05 µM: 30 to 75%

SMILES: CN1CCC(n2c(=O)oc3ccc(-c4ccc(C[C@@H](C#N)NC(=O)[C@@H]5CNCCCO5)c(F)c4)cc32)C(F)(F)C1 (some centres unmarked) [Compound D100]
- inhibition at 0.005 µM: < 30%
- inhibition at 0.05 µM: 30 to 75%

SMILES: CN1CC2(C1)OC(=O)c1ccc(-c3ccc(C[C@@H](C#N)NC(=O)[C@@H]4CNCCCO4)c(F)c3)cc12 [Compound D102]
- inhibition at 0.005 µM: < 30%
- inhibition at 0.05 µM: 75 to 100%
- IC50: 13.1 nM

SMILES: CN1CC2(C1)OCc1ccc(-c3ccc(C[C@@H](C#N)NC(=O)[C@@H]4CNCCCO4)c(F)c3)cc12 [Compound D103]
- inhibition at 0.005 µM: 30 to 75%
- inhibition at 0.05 µM: 75 to 100%
- IC50: 12.2 nM

SMILES: CN1CCC2(CC1)OC(=O)c1ccc(-c3ccc(C[C@@H](C#N)NC(=O)[C@@H]4CNCCCO4)c(F)c3)cc12 [Compound D104]
- inhibition at 0.005 µM: < 30%
- inhibition at 0.05 µM: < 30%

SMILES: CN1CCC2(CC1)OCc1ccc(-c3ccc(C[C@@H](C#N)NC(=O)[C@@H]4CNCCCO4)c(F)c3)cc12 [Compound D105]
- inhibition at 0.005 µM: < 30%
- inhibition at 0.05 µM: < 30%
